Read-outs that look alike come from different tables or passages of the source.
Tests used:
[1] = target: T1, *NSD2 PWWP1 ubiquitination by SCF^FBXO22 (Homo sapiens, UniProt O96028+Q8NEZ5); assay: Ubiquitination assay using purified components; format: biochemical; details: for SCF^FBXO22-dependent ubiquitination of *NSD2 PWWP1: compound at 0.5 µM, fluorescent SDS-PAGE; for hook effect upon titration in ubiquitination assay: compound titration
T1 construct: fluorescently labeled NSD2-PWWP1 (*NSD2-PWWP1); the FIST domain of FBXO22 rather than full-length FBXO22 that is used in the ubiquitination; 6xHis (N, cleaved yes); GST (cleaved yes); made in house; host or cells: SKP1-FBXO22: Trichoplusia ni insect cells; NSD2 PWWP1 and NEDD8: E. coli BL21(DE3)-CodonPlus RIL
Method: Ubiquitination assays were performed by mixing 2 separate solutions. First, SKP1-FBXO22, fluorescently labeled NSD2-PWWP1 (*NSD2-PWWP1), and compounds, unless otherwise indicated, were pre-incubated for 15 min on ice. Second, UBA1, UBE2R2, UBE2D2 or UBE2L3 and ARIH1, NEDD8 ~ CUL1-RBX1, MgATP, and reaction buffer (20 mM HEPES pH 8, 200 mM NaCl, 0.5 mg/mL bovine serum albumin (BSA)) were combined on ice to generate a master mix. A standard volume of master mix was added to each reaction tube, and Ub was added to initiate the ubiquitination reaction containing 100µM Ub, 1µM SKP1-FBXO22, 0.5µM *NSD2 PWWP1, 0.5µM compound, 0.1µM UBA1, 1µM UBE2R2, 1µM UBE2D2 or 1µM UBE2L3, and 1µM ARIH1, 1µM NEDD8~CUL1-RBX1, and 5mM MgATP in reaction buffer. Ubiquitination assays comparing *NSD2 PWWP1 mutants were performed similarly, except that SKP1-FBXO22, *NSD2 PWWP1 mutants, and compounds were not incubated separately prior to the start of the reaction. The reactions proceeded at room temperature for 15 min until they were quenched by adding SDS Loading Buffer. The ubiquitinated *NSD2 PWWP1 was visualized by subjecting the reactions to SDS-PAGE and imaging using the Amersham Typhoon.

His-tagged NSD2 PWWP1 = target: T2, His-tagged NSD2 PWWP1 (Homo sapiens, UniProt O96028); assay: TR-FRET cooperativity (competition) assay: displacement of biotinylated NSD2 ligand UNC7096; format: binding
T2 sequence (O96028 211-350): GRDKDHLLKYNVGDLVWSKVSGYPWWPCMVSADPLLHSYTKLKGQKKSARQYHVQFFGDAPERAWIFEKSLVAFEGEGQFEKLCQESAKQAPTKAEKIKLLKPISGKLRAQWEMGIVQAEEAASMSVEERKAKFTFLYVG
Description: Because of the direct interactions observed between FBXO22 and NSD2, we hypothesized that some degree of cooperative binding could facilitate complex stabilization. Therefore, we developed a TR-FRET assay to monitor the interaction between his-tagged NSD2 and a biotinylated NSD2 ligand, UNC7096, that is missing the modality for FBXO22-recruitment (Supplementary Fig. 3D)[20]. Given the positive FRET signal observed when both NSD2 PWWP1 and UNC7096 are present, we used this setup to evaluate the displacement of UNC7096 by UNC10088 in the presence or absence of the FBXO22 FIST domain (Supplementary Fig. 3D). […] Importantly, this FBXO22-dependent enhancement of NSD2 antagonism by UNC10088 was absent when C326 was substituted for alanine (Supplementary Fig. 3F). Taken together, the SCF^FBXO22-NSD2 PWWP1 structure both confirms prior results and provides additional insight into the surfaces that contribute to a cooperative interaction between NSD2 and FBXO22 to promote potent NSD2 polyubiquitination and degradation.
The TR-FRET assay was adapted to assess cooperativity from the following workflows previously reported[39],[40]. Assays were performed in white, low-volume, flat-bottom, nonbinding 384-well microplates (Greiner, Catalog No. 784904) with a final assay volume of 10 μL per well. The assay buffer contained 20 mM Tris–HCl (pH 7.5) and 150mM NaCl, 0.05% Tween-20 (v/v), 2mM DTT, and 1% DMSO (v/v). LANCE Europium (Eu)-W8044 Streptavidin conjugate (2 nM) and LANCE Ultra ULight-anti6x-His labeled antibodies (10 nM) were used as donor and acceptor fluorophores associated with the tracer ligand and protein, respectively. Final assay concentrations of 63 nM His-tagged NSD2 PWWP1 and 31 nM of UNC7096 (a biotinylated version of the NSD2 ligand) as a tracer ligand were used for compound testing. UNC8732, UNC10088, and UNC10415667 were diluted in a 10-point, 3-fold serial dilution, and indicated compounds were pre-incubated with FBXO22 FIST for 30 min. A master mix of NSD2 PWWP1, UNC7096, and TR-FRET reagents was made prior to its addition to the compounds and/or FBXO22 FIST. The plates were sealed with metallic covers, mixed gently for 1 min, and incubated in the dark for 1 h. After 1 h, the plate was read on an EnVision 2103 plate reader with a 320 nm excitation filter and 615 nm/ 665 nm emission filters simultaneously with a dual mirror D400/D630 and a 100 μs delay. […] Raw TR-FRET signals were normalized to a high inhibition control (10 μM of UNC10088) and negative control (1% DMSO). The normalized TR-FRET signals were plotted against the compound concentrations. […] Ki values were calculated from the IC50s using the tight-binding model[41],[42]. The cooperativity factor (α) was calculated as the ratio of Ki (Binary)/ Ki (Ternary), with α > 1 indicating positive cooperativity between NSD2 PWWP1 and FBXO22 FIST based on its disruption of NSD2 binding to UNC7096.

[2] = compound alone (buffer, no FBXO22 FIST), tracer UNC7096, read-out: IC50, competitive TR-FRET, binding to NSD2 PWWP1

T1 sequence (Q8NEZ5 whole entry, one chain of several, the tested form may be a part): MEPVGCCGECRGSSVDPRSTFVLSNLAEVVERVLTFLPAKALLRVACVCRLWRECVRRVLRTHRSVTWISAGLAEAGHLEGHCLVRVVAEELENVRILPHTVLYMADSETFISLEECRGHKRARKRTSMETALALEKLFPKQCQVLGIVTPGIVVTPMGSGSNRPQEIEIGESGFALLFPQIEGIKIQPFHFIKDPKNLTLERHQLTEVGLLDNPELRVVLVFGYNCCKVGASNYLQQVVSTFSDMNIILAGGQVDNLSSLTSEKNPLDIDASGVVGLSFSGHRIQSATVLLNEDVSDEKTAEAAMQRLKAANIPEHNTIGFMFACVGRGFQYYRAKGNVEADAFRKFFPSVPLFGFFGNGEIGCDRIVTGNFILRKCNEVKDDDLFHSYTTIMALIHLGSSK

Compound	SCF^FBXO22-dependent ubiquitination of *NSD2 PWWP1 [1]	hook effect upon titration in ubiquitination assay [1]	IC50 (His-tagged NSD2 PWWP1; [2]) [nM]	IC50 (His-tagged NSD2 PWWP1; FBXO22 FIST C326A variant present, read-out: IC50, competitive TR-FRET, in the presence of C326A FIST) [nM]	IC50 (His-tagged NSD2 PWWP1; FBXO22 FIST present, reagents not preincubated, read-out: IC50, competitive TR-FRET, in the presence of FBXO22 FIST without preincubation) [nM]	IC50 (His-tagged NSD2 PWWP1; WT FBXO22 FIST present, compound pre-incubated with FIST 30 min, read-out: IC50, competitive TR-FRET, in the presence of FBXO22 FIST) [nM]
Cc1cc(C=O)ccc1C(=O)N1CCc2cc(NC(=O)c3ccc(CN(C(=O)c4ccc5c(c4)OCC(=O)N5)C4CC4)cc3)ccc2C1 [UNC12149]	significant in vitro NSD2 ubiquitination	–	–	–	–	–
O=Cc1ccc(C(=O)N2CCc3cc(NC(=O)c4ccc(CN(C(=O)c5ccc6c(c5)OCC(=O)N6)C5CC5)cc4)ccc3C2)cc1 [UNC10415667]	to the same extent as UNC10088	characteristic hook effect	159 ± 24	–	–	–
O=C1COc2cc(C(=O)N(Cc3ccc(C(=O)Nc4ccc5c(c4)CCN(C(=O)CCCCC(O)S(=O)(=O)O)C5)cc3)C3CC3)ccc2N1 (stereo not shown) [UNC10088]	promotes ubiquitination	observed hook effect	248 ± 22	227 ± 10	108	101 ± 8
